pIC50: −log10 of the molar value.

The first experiment deals with T1, P2X7 receptor (Homo sapiens, UniProt Q99572).
T1 construct: host or cells: SH-SY5Y
T1 sequence (Q99572 1-595): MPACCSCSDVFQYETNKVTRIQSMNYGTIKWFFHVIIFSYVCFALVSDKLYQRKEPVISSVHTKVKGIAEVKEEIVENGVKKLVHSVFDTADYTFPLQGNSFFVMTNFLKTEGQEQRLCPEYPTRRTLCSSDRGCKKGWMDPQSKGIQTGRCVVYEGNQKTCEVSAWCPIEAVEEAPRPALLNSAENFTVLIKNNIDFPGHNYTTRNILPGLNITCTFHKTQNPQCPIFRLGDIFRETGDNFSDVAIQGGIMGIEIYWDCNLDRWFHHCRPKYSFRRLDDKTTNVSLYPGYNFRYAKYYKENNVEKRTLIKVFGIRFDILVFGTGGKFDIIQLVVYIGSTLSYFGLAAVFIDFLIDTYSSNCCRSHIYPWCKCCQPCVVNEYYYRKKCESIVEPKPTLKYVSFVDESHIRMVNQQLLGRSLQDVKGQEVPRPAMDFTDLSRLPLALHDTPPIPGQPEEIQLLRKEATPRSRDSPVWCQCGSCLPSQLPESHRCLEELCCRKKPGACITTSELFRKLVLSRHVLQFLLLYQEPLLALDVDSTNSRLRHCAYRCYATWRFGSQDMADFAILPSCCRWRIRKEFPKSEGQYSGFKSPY
As to the kind of experiment: P2X7 calcium mobilization assay, high throughput, antagonist activity (Example 4A). The format is cell-based.
Conditions: not given
A digest of the protocol:
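Dye-loaded cells (100,000/well, seeded previous day) are pre-exposed to compound for an hour at room temperature. Fluorescence maxima are baseline-corrected against no-agonist wells and compared with the averaged agonist-well maximum.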
A word on the pIC50: it is the negative decadic logarithm of the IC50, by convention in mol/L. `CCOC(=O)C1CCCN(Cc2cn3c(C(=O)NCC45CC6CC(CC(C6)C4)C5)cccc3n2)C1` (stereo not drawn) [Compound 189, ethyl 1-({5-[(adamantan-1-ylmethyl)carbamoyl]imi-dazo[1,2-a]pyridin-2-yl}methyl)piperidine-3-carboxylate]: the negative logarithm of the IC50 (pIC50) is more than 5.70. The same measure, in the same setting: the value for `O=C(NCC12CC3CC(CC(C3)C1)C2)c1cccc2nc(CN3CCCC(C(=O)O)C3)cn12` (stereo not drawn) [Compound 191, 1-({5-[(adamantan-1-ylmethyl)carbamoyl]imi-dazo[1,2-a]pyridin-2-yl}methyl)piperidine-3-carboxylic acid] was more than 5.70; that for `O=C(O)c1cnn(Cc2cn3c(C(=O)NCC45CC6CC(CC(C6)C4)C5)cccc3n2)c1` [Compound 203, 1-({5-[(adamantan-1-ylmethyl)carbamoyl]imi-dazo[1,2-a]pyridin-2-yl}methyl)-1H-pyrazole-4-carboxylic acid] was more than 5.70. The same measure, in the same setting: the value for `CCOC(=O)c1cnn(Cc2cn3c(C(=O)NCC45CC6CC(CC(C6)C4)C5)cccc3n2)c1` [Compound 204, ethyl 1-({5-[(adamantan-1-ylmethyl)carbamoyl]imi-dazo[1,2-a]pyridin-2-yl}methyl)-1H-pyrazole-4-carboxylate] was more than 5.70.

Still in this experiment, the particulars now being: SH-SY5Y cells; 50% decrease in fluorescence response to 80 μM BzATP; read-out: IC50.
Regarding `N[C@H]1CCN(Cc2cn3c(C(=O)NCC45CC6CC(CC(C6)C4)C5)cccc3n2)C1` [Compound 188, N-(adamantan-1-ylmethyl)-2-{[(3S)-3-aminopyrrolidin-1-yl]methyl}imidazo[1,2-a]pyridine-5-carboxamide], the pIC50 is more than 5.70.

Regarding `O=C(NCC12CC3CC(CC(C3)C1)C2)c1cccc2nc(COC3CCNC3)cn12` (stereo not drawn) [Compound 190, N-(adamantan-1-ylmethyl)-2-[(pyrrolidin-3-yloxy)methyl]imidazo[1,2-a]pyridine-5-carboxamide], the negative logarithm of the IC50 (pIC50) was more than 5.70. Same read-out and setting: the figure for `O=C(NCC12CC3CC(CC(C3)C1)C2)c1cccc2nc(CC(=O)N3C[C@@H]4C[C@H]3CN4)cn12` [Compound 192, N-(adamantan-1-ylmethyl)-2-{2-[(1S,4S)-2,5-diazabicyclo[2.2.1]hept-2-yl]-2-oxoethyl}imidazo[1,2-a]pyridine-5-carboxamide] is more than 5.70. Consider `CS(=O)(=O)NCCc1cn2c(C(=O)NCC34CC5CC(CC(C5)C3)C4)cccc2n1` [Compound 193, N-(adamantan-1-ylmethyl)-2-{2-[(methylsulfonyl)amino]eth-yl}imidazo[1,2-a]pyridine-5-carboxamide], for which the pIC50 was more than 5.70. For `CCS(=O)(=O)NCCc1cn2c(C(=O)NCC34CC5CC(CC(C5)C3)C4)cccc2n1` [Compound 194, N-(adamantan-1-ylmethyl)-2-{2-[(ethylsulfonyl)amino]eth-yl}imidazo[1,2-a]pyridine-5-carboxamide], the pIC50 was more than 5.70. As to `CC(=O)c1cn2c(C(=O)NCC34CC5CC(CC(C5)C3)C4)cccc2n1` [Compound 196, 2-acetyl-N-(adamantan-1-ylmethyl)imidazo[1,2-a]pyridine-5-carboxamide], the negative logarithm of the IC50 (pIC50) is more than 5.70.

In the case of `O=C(NCC12CC3CC(CC(C3)C1)C2)c1cccc2nc(CN3CC[C@@H](N(CCO)CCO)C3)cn12` [Compound 197, N-(adamantan-1-ylmethyl)-2-({(3R)-3-[bis(2-hydroxy-ethyl)amino]pyrrolidin-1-yl}methyl)imidazo[1,2-a]pyridine-5-carboxamide], the pIC50 is more than 5.70. As to `O=C(NCC12CC3CC(CC(C3)C1)C2)c1cccc2nc(CN3CC[C@@H](NCCO)C3)cn12` [Compound 198, N-(adamantan-1-ylmethyl)-2-({(3R)-3-[(2-hydroxy-ethyl)amino]pyrrolidin-1-yl}methyl)imidazo[1,2-a]pyridine-5-carboxamide], the pIC50 was more than 5.70.

As to `O=C(NCC12CC3CC(CC(C3)C1)C2)c1cccc2nc(Cn3cnc(CO)c3)cn12` [Compound 199, N-(adamantan-1-ylmethyl)-2-{[4-(hydroxymethyl)-1H-imidazol-1-yl]methyl}imidazo[1,2-a]pyridine-5-carboxamide], the negative-log IC50 (pIC50) was more than 5.70. Still for that read-out and setting: the figure for `O=C(NCC12CC3CC(CC(C3)C1)C2)c1cccc2nc(Cn3cncc3CO)cn12` [Compound 200, N-(adamantan-1-ylmethyl)-2-{[5-(hydroxymethyl)-1H-imidazol-1-yl]methyl}imidazo[1,2-a]pyridine-5-carboxamide] is more than 5.70; for `CCC(=O)NCCc1cn2c(C(=O)NCC34CC5CC(CC(C5)C3)C4)cccc2n1` [Compound 201, N-(adamantan-1-ylmethyl)-2-[2-(propionylamino)eth-yl]imidazo[1,2-a]pyridine-5-carboxamide] it is more than 5.70; for `CC(=O)NCCc1cn2c(C(=O)NCC34CC5CC(CC(C5)C3)C4)cccc2n1` [Compound 202, 2-(2-acetamidoethyl)-N-(adamantan-1-ylmethyl)imidazo[1,2-a]pyridine-5-carboxamide] it is more than 5.70. With `CC(c1cn2c(C(=O)NCC34CC5CC(CC(C5)C3)C4)cccc2n1)N1CC[C@@H](N)C1` (stereo partly drawn) [Compound 205, N-(adamantan-1-ylmethyl)-2-{1-[(3R)-3-aminopyrrolidin-1-yl]ethyl}imidazo[1,2-a]pyridine-5-carboxamide], the negative logarithm of the IC50 (pIC50) was more than 5.70.

As to `Nc1nnn(Cc2cn3c(C(=O)NCC45CC6CC(CC(C6)C4)C5)cccc3n2)n1` [Compound 206, N-(adamantan-1-ylmethyl)-2-[(5-amino-2H-tetrazol-2-yl)methyl]imidazo[1,2-a]pyridine-5-carboxamide], the pIC50 is more than 5.70.

With `Nc1nnnn1Cc1cn2c(C(=O)NCC34CC5CC(CC(C5)C3)C4)cccc2n1` [Compound 207, N-(adamantan-1-ylmethyl)-2-[(5-amino-1H-tetrazol-1-yl)methyl]imidazo[1,2-a]pyridine-5-carboxamide], the pIC50 is more than 5.70. Consider `Nc1ccn(Cc2cn3c(C(=O)NCC45CC6CC(CC(C6)C4)C5)cccc3n2)n1` [Compound 208, N-(adamantan-1-ylmethyl)-2-[(3-amino-1H-pyrazol-1-yl)methyl]imidazo[1,2-a]pyridine-5-carboxamide], for which the pIC50 was more than 5.70. `Nc1ccnn1Cc1cn2c(C(=O)NCC34CC5CC(CC(C5)C3)C4)cccc2n1` [Compound 209, N-(adamantan-1-ylmethyl)-2-[(5-amino-1H-pyrazol-1-yl)methyl]imidazo[1,2-a]pyridine-5-carboxamide]: the negative-log IC50 (pIC50) is more than 5.70.

Take `Cc1ccn(Cc2cn3c(C(=O)NCC45CC6CC(CC(C6)C4)C5)cccc3n2)n1` [Compound 210, N-(adamantan-1-ylmethyl)-2-[(3-methyl-1H-pyrazol-1-yl)methyl]imidazo[1,2-a]pyridine-5-carboxamide]: the pIC50 was more than 5.70. On the same count and under the same terms, the figure for `O=C(NCC12CC3CC(CC(C3)C1)C2)c1cccc2nc(Cn3ccccc3=O)cn12` [Compound 211, N-(adamantan-1-ylmethyl)-2-[(2-oxopyridin-1(2H)-yl)methyl]imidazo[1,2-a]pyridine-5-carboxamide] is more than 5.70.

The same experiment, now with this note: fluorescence response of cells exposed to 80 μM 2′(3′)-O-(4-benzoyl-benzoyl)adenosine 5′-triphosphate; Example 4A; read-out: IC50.
With `CCNC(=O)Cc1cn2c(C(=O)NCC(CC(C)C)c3ccccc3)cccc2n1` (stereo not drawn) [Compound 220, 2-[2-(ethylamino)-2-oxoethyl]-N-(4-methyl-2-phenylpentyl) imidazo [1,2-a]pyridine-5-carboxamide], the pIC50 was more than 5.70. For the compound `CC(C)CC(CNC(=O)c1cccc2nc(CC(=O)NCC3CC3)cn12)c1ccccc1` (stereo not drawn) [Compound 222, 2-{2-[(cyclopropylmethyl)amino]-2-oxoethyl}-N-(4-methyl-2-phenylpentyl) imidazo [1,2-a]pyridine-5-carboxamide], the pIC50 is more than 5.70. With `CC(C)CNC(=O)Cc1cn2c(C(=O)NCC(CC(C)C)c3ccccc3)cccc2n1` (stereo not drawn) [Compound 223, 2-[2-(isobutylamino)-2-oxoethyl]-N-(4-methyl-2-phenylpentyl) imidazo [1,2-a]pyridine-5-carboxamide], the pIC50 was more than 5.70.

Regarding `CC(C)CC(CNC(=O)c1cccc2nc(CC(=O)NC3CCCC3)cn12)c1ccccc1` (stereo not drawn) [Compound 224, 2-[2-(cyclopentylamino)-2-oxoethyl]-N-(4-methyl-2-phenylpentyl) imidazo [1,2-a]pyridine-5-carboxamide], the pIC50 is more than 5.70.

For `CC(C)CC(CNC(=O)c1cccc2nc(CC(=O)NCC(C)(C)C)cn12)c1ccccc1` (stereo not drawn) [Compound 225, 2-{2-[(2,2-dimethylpropyl)amino]-2-oxoethyl}-N-(4-methyl-2-phenylpentyl) imidazo [1,2-a]pyridine-5-carboxamide], the pIC50 is more than 5.70. The same measure, in the same setting: the value for `CC(C)CC(CNC(=O)c1cccc2nc(CC(=O)NCC(F)(F)F)cn12)c1ccccc1` (stereo not drawn) [Compound 229, N-(4-methyl-2-phenylpentyl)-2-{2-oxo-2-[(2,2,2-trifluoroethyl)amino]ethyl}imidazo[1,2-a]pyridine-5-carboxamide] was more than 5.70. Same read-out and setting: the value for `CCCOCCNC(=O)Cc1cn2c(C(=O)NCC(CC(C)C)c3ccccc3)cccc2n1` (stereo not drawn) [Compound 230, N-(4-methyl-2-phenylpentyl)-2-{2-oxo-2-[(2-propoxyethyl)amino]ethyl}imidazo[1,2-a]pyridine-5-carboxamide] was more than 5.70.

(Values after US8431593B2, “Heteroaryl amide derivatives” (H. Lundbeck A/S, priority 2006, dated 2013).)
